Patent publication US8530623B2, “Proteasome-activating lightening peptides and compositions containing same” (ISP Investments Inc., priority 2009, dated 2013)
Where no end group is shown, it is not given here.

System: melanin present in the epidermis of human skin samples
Experiment: Depigmenting effect ex vivo on human skin biopsies (Fontana-Masson melanin staining)
Type: cell-based
Settings: 2 applications per day
Protocol: 6 mm diameter biopsies are taken from human skin samples. These biopsies are maintained in ex vivo survival in the presence of a specific medium (DMEM 1 g/L, HAMF12, SVF and antibiotics) on inserts deposited in 6-well plates. The biopsies are then pretreated for 24 hours with the active principle at 3% concentration at a rate of 2 applications per day. Other skin samples will not be pretreated with the active principle and will be used as the control condition. Subsequently, the biopsies are subjected to UVB irradiation at a rate of 100 mJ/cm^2. The pretreated biopsies are again treated for 24 hours with the active principle at 3% concentration at a rate of 2 applications per day. After this second treatment, a quantitative evaluation of the quantity of melanin present in the epidermis of skin samples is carried out histologically, with an optical microscope, after staining according to the Fontana-Masson method.
To do this, the skin biopsies are enclosed in paraffin and histological sections with a thickness of 4 μm are made. These sections are then stained by the Fontana-Masson technique: The paraffin is removed from the slides; the slides being hydrated and then treated with a silver ammonium hydroxide solution. […]

Question: Asp-Cys-Arg-NH2 [SEQ ID No. 2] was tested. Which “melanin level (pigmentation level) in the epidermis, absence of UVB irradiation” value (active principle at 3% concentration, 24 hours, no UVB, vs untreated skin, optical microscope) did it give?
Answer: reduces the melanin level

Question: And the “melanin synthesis induced by UVB irradiation (pigmentation level after UVB)” value (pretreated 24 hours at 3%, UVB 100 mJ/cm^2, treated again 24 hours, vs untreated control)?
Answer: very distinctly reduced
